Data: paper PMC11435058, “Synthesis of New Thiazole-Privileged Chalcones as Tubulin Polymerization Inhibitors with Potential Anticancer Activities” (Pharmaceuticals, 2024)

What was measured:
[1] = system: NCI/ADR-RES; assay: NCI-60 anticancer screen (SRB; single dose and five doses); conditions: Homo sapiens
[2] = system: OVCAR-5; assay: as above; conditions: Homo sapiens
[3] = system: MDA-MB-435; assay: as above; conditions: Homo sapiens
[4] = system: UACC-257; assay: as above; conditions: Homo sapiens
[5] = system: HT29; assay: as above; conditions: Homo sapiens
[6] = system: OVCAR-4; assay: as above; conditions: Homo sapiens
[7] = system: KM12; assay: as above; conditions: Homo sapiens
[8] = system: U251; assay: as above; conditions: Homo sapiens
[9] = system: HCT-15; assay: as above; conditions: Homo sapiens
[10] = system: NCI-H226; assay: as above; conditions: Homo sapiens
[11] = system: MOLT-4; assay: as above; conditions: Homo sapiens
[12] = system: NCI-H522; assay: as above; conditions: Homo sapiens
[13] = system: LOX IMVI; assay: as above; conditions: Homo sapiens
[14] = system: UO-31; assay: as above; conditions: Homo sapiens
[15] = system: MCF7; assay: as above; conditions: Homo sapiens
[16] = system: K-562; assay: as above; conditions: Homo sapiens
[17] = system: SNB-19; assay: cells; conditions: Homo sapiens
[18] = system: 786-0; assay: NCI-60 anticancer screen (SRB; single dose and five doses); conditions: Homo sapiens
[19] = system: T-47D; assay: as above; conditions: Homo sapiens, T47D
[20] = system: MALME-3M; assay: as above; conditions: Homo sapiens
[21] = system: HL-60(TB); assay: as above; conditions: Homo sapiens
[22] = system: 60 human tumor cell lines panel; assay: NCI-60 anticancer screen, whole panel (means and ranges over the cell lines); type: cell-based
[23] = system: A549/ATCC; assay: NCI-60 anticancer screen (SRB; single dose and five doses); conditions: Homo sapiens
[24] = system: SK-OV-3; assay: as above; conditions: Homo sapiens
[25] = system: SK-MEL-5; assay: as above; conditions: Homo sapiens
[26] = system: OVCAR-3; assay: cells; conditions: Homo sapiens
[27] = system: HCC-2998; assay: NCI-60 anticancer screen (SRB; single dose and five doses)
[28] = system: TK-10; assay: as above; conditions: Homo sapiens
[29] = system: HCT-116; assay: as above; conditions: Homo sapiens
[30] = 48 h, read-out: Growth Percentage
[31] = five doses, mean graph midpoint over all cell lines

Cc1[nH]c(=S)sc1C(=O)/C=C/c1cccc([N+](=O)[O-])c1 [2h, (E)-1-(4-Methyl-2-Thioxo-2,3-Dihydrothiazol-5-yl)-3-(3-Nitrophenyl)Prop-2-En-1-One]
GI50 [1]: 2.51 µM | IC50 [1]: 4.27 µM | activity at 10 µM [1, 30]: 8.19% | CC50 ([1]; read-out: LC50): > 100 µM | IC (TGI) ([1]; read-out: TGI): 5.75 µM | GI50 ([2]; OVCAR-5): 3.63 µM | IC50 ([2]; OVCAR-5): 9.12 µM | activity at 10 µM ([2]; OVCAR-5, 48 h, read-out: Growth Percentage): -37.4% | CC50 ([2]; OVCAR-5, read-out: LC50): 38.9 µM | IC (TGI) ([2]; OVCAR-5, read-out: TGI): 13.8 µM | GI50 ([3]; MDA-MB-435): 4.57 µM | IC50 ([3]; MDA-MB-435): 7.41 µM | activity at 10 µM ([3]; MDA-MB-435, 48 h, read-out: Growth Percentage): -37% | CC50 ([3]; MDA-MB-435, read-out: LC50): 44.7 µM | IC (TGI) ([3]; MDA-MB-435, read-out: TGI): 17 µM | GI50 ([4]; UACC-257): 3.39 µM | IC50 ([4]; UACC-257): 10 µM | activity at 10 µM ([4]; UACC-257, 48 h, read-out: Growth Percentage): 9.4% | CC50 ([4]; UACC-257, read-out: LC50): 38 µM | IC (TGI) ([4]; UACC-257, read-out: TGI): 13.5 µM | GI50 ([5]; HT-29): 5.5 µM | IC50 ([5]; HT-29): 7.24 µM | activity at 10 µM ([5]; HT-29, 48 h, read-out: Growth Percentage): 20.4% | CC50 ([5]; HT-29, read-out: LC50): 60.3 µM | IC (TGI) ([5]; HT-29, read-out: TGI): 19.9 µM | GI50 ([6]; OVCAR-4): 11 µM | IC50 ([6]; OVCAR-4): 20.4 µM | activity at 10 µM ([6]; OVCAR-4, 48 h, read-out: Growth Percentage): 13.1% | CC50 ([6]; OVCAR-4, read-out: LC50): 51.3 µM | IC (TGI) ([6]; OVCAR-4, read-out: TGI): 24 µM | GI50 ([7]; KM12): 3.63 µM | IC50 ([7]; KM12): 5.37 µM | activity at 10 µM ([7]; KM12, 48 h, read-out: Growth Percentage): -78.4% | CC50 ([7]; KM12, read-out: LC50): 42.7 µM | IC (TGI) ([7]; KM12, read-out: TGI): 13.2 µM | GI50 ([8]; U-251): 1.74 µM | IC50 ([8]; U-251): 3.09 µM | activity at 10 µM ([8]; U-251, 48 h, read-out: Growth Percentage): -76% | CC50 ([8]; U-251, read-out: LC50): 5.89 µM | IC (TGI) ([8]; U-251, read-out: TGI): 3.24 µM | GI50 ([9]; HCT-15): 2.14 µM | IC50 ([9]; HCT-15): 3.47 µM | activity at 10 µM ([9]; HCT-15, 48 h, read-out: Growth Percentage): -36.4% | CC50 ([9]; HCT-15, read-out: LC50): 31.6 µM | IC (TGI) ([9]; HCT-15, read-out: TGI): 7.76 µM | GI50 ([10]; NCI-H226): 11.2 µM | IC50 ([10]; NCI-H226): 33.1 µM | activity at 10 µM ([10]; NCI-H226, 48 h, read-out: Growth Percentage): -41.9% | CC50 ([10]; NCI-H226, read-out: LC50): > 100 µM | IC (TGI) ([10]; NCI-H226, read-out: TGI): 38 µM | GI50 ([11]; MOLT-4): 3.47 µM | IC50 ([11]; MOLT-4): 5.01 µM | activity at 10 µM ([11]; MOLT-4, 48 h, read-out: Growth Percentage): 13.3% | CC50 ([11]; MOLT-4, read-out: LC50): > 100 µM | IC (TGI) ([11]; MOLT-4, read-out: TGI): 30.2 µM | GI50 ([12]; NCI-H522): 5.01 µM | IC50 ([12]; NCI-H522): 11.8 µM | activity at 10 µM ([12]; NCI-H522, 48 h, read-out: Growth Percentage): -58.8% | CC50 ([12]; NCI-H522, read-out: LC50): 46.8 µM | IC (TGI) ([12]; NCI-H522, read-out: TGI): 17.8 µM | GI50 [13]: 1.58 µM | IC50 [13]: 2.75 µM | activity at 10 µM [13, 30]: -99% | CC50 ([13]; read-out: LC50): 6.03 µM | IC (TGI) ([13]; read-out: TGI): 3.09 µM | GI50 ([14]; UO-31): 3.89 µM | IC50 ([14]; UO-31): 10.7 µM | activity at 10 µM ([14]; UO-31, 48 h, read-out: Growth Percentage): -89.6% | CC50 ([14]; UO-31, read-out: LC50): 43.6 µM | IC (TGI) ([14]; UO-31, read-out: TGI): 17 µM | GI50 ([15]; MCF7): 2.75 µM | IC50 ([15]; MCF7): 6.31 µM | activity at 10 µM ([15]; MCF7, 48 h, read-out: Growth Percentage): -45.4% | CC50 ([15]; MCF7, read-out: LC50): 38 µM | IC (TGI) ([15]; MCF7, read-out: TGI): 9.77 µM | GI50 ([16]; K562): 3.09 µM | IC50 ([16]; K562): 3.72 µM | activity at 10 µM ([16]; K562, 48 h, read-out: Growth Percentage): 13.8% | CC50 ([16]; K562, read-out: LC50): > 100 µM | IC (TGI) ([16]; K562, read-out: TGI): > 100 µM | GI50 ([17]; SNB-19): 4.9 µM | IC50 ([17]; SNB-19): 11.8 µM | activity at 10 µM ([17]; SNB-19, 48 h, read-out: Growth Percentage): 10.4% | CC50 ([17]; SNB-19, read-out: LC50): 41.7 µM | IC (TGI) ([17]; SNB-19, read-out: TGI): 17 µM | GI50 ([18]; 786-0): 3.98 µM | IC50 ([18]; 786-0): 6.31 µM | activity at 10 µM ([18]; 786-0, 48 h, read-out: Growth Percentage): -10.8% | CC50 ([18]; 786-0, read-out: LC50): 50.1 µM | IC (TGI) ([18]; 786-0, read-out: TGI): 15.8 µM | GI50 [19]: 2 µM | IC50 [19]: 4.9 µM | activity at 10 µM [19, 30]: -56.6% | CC50 ([19]; read-out: LC50): 66.1 µM | IC (TGI) ([19]; read-out: TGI): 7.08 µM | GI50 [20]: 12.3 µM | IC50 [20]: 24.6 µM | activity at 10 µM [20, 30]: -42.9% | CC50 ([20]; read-out: LC50): 55 µM | IC (TGI) ([20]; read-out: TGI): 26.3 µM | GI50 ([21]; HL-60): 1.95 µM | IC50 ([21]; HL-60): 3.31 µM | activity at 10 µM ([21]; HL-60, 48 h, read-out: Growth Percentage): 5.25% | CC50 ([21]; HL-60, read-out: LC50): > 100 µM | IC (TGI) ([21]; HL-60, read-out: TGI): 5.75 µM | activity at 10 µM ([22]; Homo sapiens, 48 h, mean over the tested cell lines, dose of 10 μM, read-out: Mean growth percentage): -21.8% | Log10GI50 _MID [22, 31]: -5.37 Molar | Log10LC50 _MID [22, 31]: -4.34 Molar | Log10TGI _MID [22, 31]: -4.82 Molar | GI50 ([23]; A549): 3.24 µM | IC50 ([23]; A549): 4.47 µM | activity at 10 µM ([23]; A549, 48 h, read-out: Growth Percentage): 19.5% | CC50 ([23]; A549, read-out: LC50): 55 µM | IC (TGI) ([23]; A549, read-out: TGI): 12 µM | GI50 ([24]; SK-OV-3): 5.89 µM | IC50 ([24]; SK-OV-3): 15.1 µM | activity at 10 µM ([24]; SK-OV-3, 48 h, read-out: Growth Percentage): 44.6% | CC50 ([24]; SK-OV-3, read-out: LC50): 45.7 µM | IC (TGI) ([24]; SK-OV-3, read-out: TGI): 18.6 µM | GI50 ([25]; SK-MEL-5): 13.2 µM | IC50 ([25]; SK-MEL-5): 22.9 µM | activity at 10 µM ([25]; SK-MEL-5, 48 h, read-out: Growth Percentage): -68.8% | CC50 ([25]; SK-MEL-5, read-out: LC50): 51.3 µM | IC (TGI) ([25]; SK-MEL-5, read-out: TGI): 26.3 µM | GI50 ([26]; OVCAR-3): 2.4 µM | activity at 10 µM ([26]; OVCAR-3, 48 h, read-out: Growth Percentage): -79.5% | IC50 ([26]; OVCAR-3, five-dose, Ovarian Cancer OVCAR-3): 4.37 µM | CC50 ([26]; OVCAR-3, read-out: LC50): 24 µM | IC (TGI) ([26]; OVCAR-3, read-out: TGI): 6.46 µM | GI50 ([27]; Homo sapiens, HCC 2998): 2 µM | IC50 ([27]; Homo sapiens, HCC 2998): 3.63 µM | activity at 10 µM ([27]; Homo sapiens, HCC 2998, 48 h, read-out: Growth Percentage): -86.7% | CC50 ([27]; Homo sapiens, HCC 2998, read-out: LC50): 11.8 µM | TGI ([27]; five-dose, Colon Cancer HCC-2998): 4.57 µM | GI50 ([28]; TK-10): 11.2 µM | IC50 ([28]; TK-10): 22.9 µM | CC50 ([28]; TK-10, read-out: LC50): 50.1 µM | IC (TGI) ([28]; TK-10, read-out: TGI): 23.4 µM | GI50 ([29]; HCT-116): 2.88 µM | IC50 ([29]; HCT-116): 3.31 µM | activity at 10 µM ([29]; HCT-116, 48 h, read-out: Growth Percentage): -6.25% | CC50 ([29]; HCT-116, read-out: LC50): > 100 µM | IC (TGI) ([29]; HCT-116, read-out: TGI): > 100 µM
